Assays:
[1] = test system: cisplatin-induced vomiting; test: Preventive and therapeutic effects against vomiting induced by cisplatin; format: in vivo, male ferrets; conditions: i.v.; for Inhibitory rate, preventive effect: 5 minutes before cisplatin (10 mg/kg), vomiting counted for 4 hours; for Inhibitory rate, therapeutic effect: after appearance of vomiting (about 80 minutes after cisplatin 10 mg/kg), counted for 4 hours
Procedure: Preventive and therapeutic effects against vomiting induced by cisplatin:
The experiment was conducted in accordance with the method by Costall et al. [Neuropharmacology, 26, 1321-1326 (1987)].
That is, male ferrets (weighing 1.0 to 1.6 kg, three animals in each group) underwent an implant operation of cannula at the jugular vein for intravenous administration. For evaluating the preventive effects, the test compounds dissolved in a physiological saline or in a physiological saline containing 5% ethanol or a physiological saline (control) were intravenously administered to the ferrets three days after the operation, then after 5 minutes, cisplatin (10 mg/kg) dissolved in a physiological saline was intravenously administered to the ferrets over 30 seconds, and a number of vomiting caused between just after the administration of cisplatin and 4 hours after the administration was measured. As to the therapeutic effects, cisplatin (10 mg/kg) dissolved in a physiological saline was intravenously administered to the ferrets three days after the operation over 30 seconds. After appearance of vomiting (about 80 minutes after the administration of cisplatin), the test compounds dissolved in a physiological saline or in a physiological saline containing 5% ethanol or a physiological saline (control) were intravenously administered to the ferrets and then a number of vomiting occurred during 4 hours thereafter was counted. The inhibitory rate was calculated by the following formula: Inhibitory rate (%)={1-(mean number of vomiting in the group administered with the test compound/mean number of vomiting in the control group)}×100

5-HT3 receptor = molecular target: T1, 5-HT3 receptor (Rattus norvegicus, UniProt P35563); test: 5-HT3 antagonistic activity: antagonism of Bezold-Jarisch reflex (reflective bradycardia) induced by 5-HT; format: in vivo, S.D. male rats; conditions: for Duration time of 5-HT3 antagonistic activity: i.v., time until inhibitory rate of reflective bradycardia became 20% or less; for ED50: rat, iv, read-out: ED50 [95% Confidence limits], antagonistic activity against Bezold-Jarisch reflex
T1 construct: S.D. male rats (weighing 200 to 350 g) were anesthetized; from tissue; host or cells: whole anesthetized S.D. male rats (in vivo; endogenous receptor)
T1 sequence (P35563 24-483): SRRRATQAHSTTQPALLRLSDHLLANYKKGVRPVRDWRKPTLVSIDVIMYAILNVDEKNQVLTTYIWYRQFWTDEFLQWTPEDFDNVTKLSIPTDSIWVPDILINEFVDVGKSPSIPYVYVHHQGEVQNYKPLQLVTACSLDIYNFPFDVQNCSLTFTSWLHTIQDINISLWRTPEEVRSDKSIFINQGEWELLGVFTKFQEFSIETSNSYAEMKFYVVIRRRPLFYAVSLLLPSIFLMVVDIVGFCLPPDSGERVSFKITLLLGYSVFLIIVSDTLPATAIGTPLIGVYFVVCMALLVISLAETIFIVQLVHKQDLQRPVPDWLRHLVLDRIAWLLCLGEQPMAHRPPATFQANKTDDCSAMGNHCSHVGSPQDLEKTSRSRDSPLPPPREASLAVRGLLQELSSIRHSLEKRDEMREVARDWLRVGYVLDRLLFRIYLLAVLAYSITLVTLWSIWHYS
Procedure: 5-HT3 antagonistic activity:
The 5-HT3 antagonistic activity was measured in accordance with the method by Collins et al. [Br. J. Pharmacol., 80, 570P (1983)] using as an index the inhibitory activity against reflective bradycardia [Bezold-Jarisch reflex] induced by 5-HT.
That is, S.D. male rats (weighing 200 to 350 g) were anesthetized by intraperitoneal administration of urethane ([…]) and introduced with cannula into the carotid and the pulse frequency was measured. 5-HT was dissolved in physiological saline and intravenously administered (0.04 mg/kg). The test compounds were dissolved in physiological saline or physiological saline containing 5% ethanol and intravenously administered five minutes before the administration of 5-HT.
ED50 values were obtained from a dose-response curve of inhibitory rate of reflective bradycardia by the test compounds and the 5-HT3 antagonistic activity was compared.
In addition, the test compounds (about 25 times amount of the above ED50 value) and 5-HT were intravenously administered in the same manner as mentioned above and thereafter 5-HT (0.04 mg/kg) was intravenously administered with the passage of time.

[2] = test system: vomiting caused by the administration of the chemotherapeutics such as cisplatin; conditions: Cancer. Chemother. Pharmacol., 23, 389-391 (1989); cited from earlier work
ddY Male mice = test: Acute toxicity; format: in vivo; conditions: 100 mg/kg intravenously; observed for 7 days; five mice per group
Excerpt: The same as in Experiment 2

Structure (SMILES)	Inhibitory rate, preventive effect ([1]; 0.1 mg/kg)	Inhibitory rate, therapeutic effect ([1]; 0.1 mg/kg)	Duration time of 5-HT3 antagonistic activity (5-HT3 receptor; dose 100 μg/kg)	ED50 (5-HT3 receptor)	Inhibition of vomiting caused by chemotherapeutics such as cisplatin [2]	Death of animals (ddY Male mice)	Inhibitory rate, preventive effect ([1]; 0.01 mg/kg)	Inhibitory rate, therapeutic effect ([1]; 0.01 mg/kg)	Duration time of 5-HT3 antagonistic activity (5-HT3 receptor; dose 1.0 μg/kg)	5-HT3 antagonistic activity compared to the compound of the present invention (5-HT3 receptor; in words, reason why duration was not measured)
Cc1nccn1CC1CCc2c(c3ccccc3n2C)C1=O (centres unmarked) [Reference compound, Ondansetron]	31%	77%	2 h	4 µg/kg	effective	all animals were dead				
CC(C)n1c(N2CCN(C)CC2)nc2cc(Cl)c(N)cc21.O=C(O)/C=C\C(=O)O.O=C(O)/C=C\C(=O)O [Compound 2, 6-Amino-5-chloro-1-isopropyl-2-(4-methyl-1-piperazinyl)benzimidazole dimaleate]							85%	100%	> 8 h	
CN1CCN(c2nc3ccccc3n2C)CC1 [Compound A, 1-Methyl-2-(4-methyl-1-piperazinyl)benzimidazole]				> 3 µg/kg						quite low as compared to the compound of the present invention
CC(C)n1c(N2CCN(C)CC2)nc2cc(Cl)c(N)cc21 [Compound 1, 6-Amino-5-chloro-1-isopropyl-2-(4-methyl-1-piperazinyl)benzimidazole]							100%	100%	> 8 h	

— patent US5407936A, “Benzimidazole derivative, process for preparing the same, antiemetic agent containing the same as active ingredient and intermediate compound for preparing the same” (priority 1991, dated 1995)
